Results on 17 compounds are retold here after patent US20260028354A1, “TETRAHYDRONAPHTHALENE DERIVATIVES AS ESTROGEN RECEPTOR DEGRADERS” (REGENT OF THE UNIVERSITY OF MICHIGAN, priority 2022, published 2026).

The nature of the first experiment: Western blot analysis for "B" compounds. The class given is cell-based. As to conditions: read-out: Traditional Western Degradation Potency (DC50). Summed up: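 Compound-treated cells lysed in RIPA buffer with protease inhibitors; equal protein (BCA) run on 10% SDS-PAGE, transferred to PVDF and probed with target antibodies. Band intensities quantified by densitometry and normalized to GAPDH.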
(In general: In western blotting, separated proteins are transferred to a membrane and probed.)
On to `O=C1CCC(N2Cc3cc4c(cc3C2=O)CN(C2CN(CC3CCN(c5ccc([C@@H]6c7ccc(O)cc7CC[C@@H]6c6ccccc6)cc5)CC3)C2)C4=O)C(=O)N1` (stereo partly drawn) [Compound B302, 2-(2,6-dioxopiperidin-3-yl)-6-(1-((1-(4-((1R,2S)-6-hydroxy-2-phenyl-1,2,3,4-tetrahydronaphthalen-1-yl)phenyl)piperidin-4-yl)methyl)azetidin-3-yl)-2,3,6,7-tetrahydropyrrolo[3,4-f]isoindole-1,5-dione], for which the DC50 (in general, the midpoint of the concentration-degradation curve) was over 100 nM. Consider `O=C1CCC(N2C(=O)c3cc4c(cc3C2=O)CN(CC(=O)N2CCC3(CC2)CN(c2ccc([C@@H]5c6ccc(O)cc6CC[C@@H]5c5ccccc5)cc2)C3)C4)C(=O)N1` (mixture of isomers) [Compound B186, 2-(2,6-dioxopiperidin-3-yl)-6-(2-(2-(4-((1R,2S)-6-hydroxy-2-phenyl-1,2,3,4-tetrahydronaphthalen-1-yl)phenyl)-2,7-diazaspiro[3.5]nonan-7-yl)-2-oxoethyl)-6,7-dihydropyrrolo[3,4-f]isoindole-1,3(2H,5H)-dione], for which the DC50 lay in the range of 10 to 100 nM. For `O=C1CCC(N2Cc3cc4c(cc3C2=O)CN(C2CCN(CC3CN(c5ccc([C@@H]6c7ccc(O)cc7CC[C@@H]6c6ccccc6)cc5)C3)CC2)C4)C(=O)N1` (stereo partly drawn) [Compound B78, 3-(6-(1-((1-(4-((1R,2S)-6-hydroxy-2-phenyl-1,2,3,4-tetrahydronaphthalen-1-yl)phenyl)azetidin-3-yl)methyl)piperidin-4-yl)-1-oxo-3,5,6,7-tetrahydropyrrolo[3,4-f]isoindol-2(1H)-yl)piperidine-2,6-dione], the DC50 was over 100 nM. With `O=C1CCC(N2C(=O)c3cc4c(cc3C2=O)CN(C(=O)[C@H]2CC[C@H](CN3CC(Nc5ccc([C@@H]6c7ccc(O)cc7CC[C@@H]6c6ccccc6)cc5)C3)CC2)C4)C(=O)N1` (stereo partly drawn) [Compound B112, 2-(2,6-dioxopiperidin-3-yl)-6-((1R,4r)-4-((3-((4-((1R,2S)-6-hydroxy-2-phenyl-1,2,3,4-tetrahydronaphthalen-1-yl)phenyl)amino)azetidin-1-yl)methyl)cyclohexane-1-carbonyl)-6,7-dihydropyrrolo[3,4-f]isoindole-1,3(2H,5H)-dione], the DC50 was under 10 nM. Still for that read-out and setting: the same measure for `O=C1CCC(N2C(=O)c3cc4c(cc3C2=O)CN(CC2CCN(C(=O)C3CN(c5ccc([C@@H]6c7ccc(O)cc7CC[C@@H]6c6ccccc6)cc5)C3)CC2)C4)C(=O)N1` (stereo partly drawn) [Compound B264, 2-(2,6-dioxopiperidin-3-yl)-6-((1-(1-(4-((1R,2S)-6-hydroxy-2-phenyl-1,2,3,4-tetrahydronaphthalen-1-yl)phenyl)azetidine-3-carbonyl)piperidin-4-yl)methyl)-6,7-dihydropyrrolo[3,4-f]isoindole-1,3(2H,5H)-dione]: over 100 nM; for `O=C1CCC(N2C(=O)c3cc4c(cc3C2=O)CN(Cc2cnc(N3CC(Oc5ccc([C@@H]6c7ccc(O)cc7CC[C@@H]6c6ccccc6)cc5)C3)cn2)C4)C(=O)N1` (stereo partly drawn) [Compound B104, 2-(2,6-dioxopiperidin-3-yl)-6-((5-(3-(4-((1R,2S)-6-hydroxy-2-phenyl-1,2,3,4-tetrahydronaphthalen-1-yl)phenoxy)azetidin-1-yl)pyrazin-2-yl)methyl)-6,7-dihydropyrrolo[3,4-f]isoindole-1,3(2H,5H)-dione]: over 100 nM. As for `O=C1CCC(N2C(=O)c3cc4c(cc3C2=O)CN(CC(=O)N2CC3(CCN(c5ccc([C@@H]6c7ccc(O)cc7CC[C@@H]6c6ccccc6)cc5)CC3)C2)CCC4)C(=O)N1` (mixture of isomers) [Compound B261, 2-(2,6-dioxopiperidin-3-yl)-6-(2-(7-(4-((1R,2S)-6-hydroxy-2-phenyl-1,2,3,4-tetrahydronaphthalen-1-yl)phenyl)-2,7-diazaspiro[3.5]nonan-2-yl)-2-oxoethyl)-6,7,8,9-tetrahydroazepino[3,4-f]isoindole-1,3(2H,5H)-dione], the DC50 was over 100 nM. In the case of `O=C1CCC(N2C(=O)c3cc4c(cc3C2=O)CN(C2CCN(C(=O)C3(F)CCN(c5ccc([C@@H]6c7ccc(O)cc7CC[C@@H]6c6ccccc6)cc5)CC3)CC2)C4)C(=O)N1` (stereo partly drawn) [Compound B280, 2-(2,6-dioxopiperidin-3-yl)-6-(1-(4-fluoro-1-(4-((1R,2S)-6-hydroxy-2-phenyl-1,2,3,4-tetrahydronaphthalen-1-yl)phenyl)piperidine-4-carbonyl)piperidin-4-yl)-6,7-dihydropyrrolo[3,4-f]isoindole-1,3(2H,5H)-dione], the DC50 is over 100 nM. Regarding `O=C1CCC(N2C(=O)c3cc4c(cc3C2=O)CN(C(=O)CN2CC3(CCN(c5ccc([C@@H]6c7ccc(O)cc7CC[C@@H]6c6ccccc6)cc5)CC3)C2)CCC4)C(=O)N1` (mixture of isomers) [Compound B260, 2-(2,6-dioxopiperidin-3-yl)-6-(2-(7-(4-((1R,2S)-6-hydroxy-2-phenyl-1,2,3,4-tetrahydronaphthalen-1-yl)phenyl)-2,7-diazaspiro[3.5]nonan-2-yl)acetyl)-6,7,8,9-tetrahydroazepino[3,4-f]isoindole-1,3(2H,5H)-dione], the DC50 is over 100 nM. As for `CN1C[C@@H]2CN(CC3CCN(c4ccc([C@@H]5c6ccc(O)cc6CC[C@@H]5c5ccccc5)cc4)CC3)CCN2c2cc3c(cc21)C(=O)N(C1CCC(=O)NC1=O)C3` (stereo partly drawn) [Compound B137, 3-((S)-3-((1-(4-((1R,2S)-6-hydroxy-2-phenyl-1,2,3,4-tetrahydronaphthalen-1-yl)phenyl)piperidin-4-yl)methyl)-6-methyl-8-oxo-2,3,4,4a,5,6,8,10-octahydropyrazino[1,2-a]pyrrolo[3,4-g]quinoxalin-9(1H)-yl)piperidine-2,6-dione], the DC50 was 10 to 100 nM. Regarding `O=C1CCC(N2C(=O)c3cc4c(cc3C2=O)CN(C2CCN(CC3CN(c5ccc([C@@H]6c7ccc(O)cc7CC[C@@H]6c6ccc(F)cc6)cc5)C3)CC2)C4)C(=O)N1` (stereo partly drawn) [Compound B69, 2-(2,6-dioxopiperidin-3-yl)-6-(1-((1-(4-((1R,2S)-2-(4-fluorophenyl)-6-hydroxy-1,2,3,4-tetrahydronaphthalen-1-yl)phenyl)azetidin-3-yl)methyl)piperidin-4-yl)-6,7-dihydropyrrolo[3,4-f]isoindole-1,3(2H,5H)-dione], the DC50 is over 100 nM. As to `O=C1CCC(N2C(=O)c3cc4c(cc3C2=O)CN(C2CN(C(=O)C3CCN(c5ccc([C@@H]6c7ccc(O)cc7CC[C@@H]6c6ccccc6)cc5)CC3)C2)C4)C(=O)N1` (mixture of isomers) [Compound B9, 2-(2,6-dioxopiperidin-3-yl)-6-(1-(1-(4-((1R,2S)-6-hydroxy-2-phenyl-1,2,3,4-tetrahydronaphthalen-1-yl)phenyl)piperidine-4-carbonyl)azetidin-3-yl)-6,7-dihydropyrrolo[3,4-f]isoindole-1,3(2H,5H)-dione], the DC50 fell in the range of 10 to 100 nM. Consider `O=C1CCC(N2Cc3cc4c(cc3C2=O)CN(C(=O)C2CCC(NC3CN(c5ccc([C@@H]6c7ccc(O)cc7CC[C@@H]6c6ccccc6)cc5)C3)CC2)C4)C(=O)N1` (stereo partly drawn) [Compound B108, 3-(6-(4-((1-(4-((1R,2S)-6-hydroxy-2-phenyl-1,2,3,4-tetrahydronaphthalen-1-yl)phenyl)azetidin-3-yl)amino)cyclohexane-1-carbonyl)-1-oxo-3,5,6,7-tetrahydropyrrolo[3,4-f]isoindol-2(1H)-yl)piperidine-2,6-dione], for which the DC50 lay within 10 to 100 nM. As for `O=C1CCC(N2C(=O)c3cc4c(cc3C2=O)CN(C2CCN(C(=O)C3CCN(c5ccc([C@@H]6c7ccc(O)cc7CC[C@@H]6c6ccccc6)cc5)CC3)CC2)C4)C(=O)N1` (stereo partly drawn) [Compound B7, 2-(2,6-dioxopiperidin-3-yl)-6-(1-(1-(4-((1R,2S)-6-hydroxy-2-phenyl-1,2,3,4-tetrahydronaphthalen-1-yl)phenyl)piperidine-4-carbonyl)piperidin-4-yl)-6,7-dihydropyrrolo[3,4-f]isoindole-1,3(2H,5H)-dione], the DC50 was under 10 nM. Still for that read-out and setting: the figure for `O=C1CCC(N2C(=O)c3cc4c(cc3C2=O)CN(Cc2ccc(N3CC(Oc5ccc([C@@H]6c7ccc(O)cc7CC[C@@H]6c6ccccc6)cc5)C3)nc2)C4)C(=O)N1` (stereo partly drawn) [Compound B91, 2-(2,6-dioxopiperidin-3-yl)-6-((6-(3-(4-((1R,2S)-6-hydroxy-2-phenyl-1,2,3,4-tetrahydronaphthalen-1-yl)phenoxy)azetidin-1-yl)pyridin-3-yl)methyl)-6,7-dihydropyrrolo[3,4-f]isoindole-1,3(2H,5H)-dione] is 10 to 100 nM; for `O=C1CCC(N2C(=O)c3cc4c(cc3C2=O)CN(Cc2cnc(N3CC(Oc5ccc([C@@H]6c7ccc(O)cc7CC[C@@H]6c6ccccc6)cc5)C3)nc2)C4)C(=O)N1` (stereo partly drawn) [Compound B92, 2-(2,6-dioxopiperidin-3-yl)-6-((2-(3-(4-((1R,2S)-6-hydroxy-2-phenyl-1,2,3,4-tetrahydronaphthalen-1-yl)phenoxy)azetidin-1-yl)pyrimidin-5-yl)methyl)-6,7-dihydropyrrolo[3,4-f]isoindole-1,3(2H,5H)-dione] it is over 100 nM.

The next experiment can be described thus: Cell growth assay (WST-8) for "B" compounds. The class given is cell-based. Conditions: T47D, T47D cell line; read-out: Cell growth Inhibition in T47D cell line IC50. How it is done:
Cell Growth Assay. The cells were seeded at 1500/well in 96 well plates overnight. One day after the seeding, they were treated with indicated doses of compounds respectively, 4 days after the compound treatment, 10% WST-8 reagent was added to the culture medium and incubate in a CO2 incubator at 37° C. for 2.5 hours. Before reading, the plate was mixed gently on an orbital shaker for one minute to ensure homogeneous distribution of color. The absorbance was measured of each sample using a microplate reader at a wavelength of 450 nm. The relative absorbance was calculated against the vehicle control from three individually repeats.
Background: Tetrazolium dyes change colour on reduction, which living cells bring about.
Consider `O=C1CC[C@H](N2Cc3cc4c(cc3C2=O)OCC2(CN(CC3CCN(c5ccc([C@@H]6c7ccc(O)cc7CC[C@@H]6c6ccccc6)cc5)CC3)C2)O4)C(=O)N1` [Compound B395, (S)-3-(1-((1-(4-((1R,2S)-6-hydroxy-2-phenyl-1,2,3,4-tetrahydronaphthalen-1-yl)phenyl)piperidin-4-yl)methyl)-6′-oxo-6′,8′-dihydro-3′H,7′H-spiro[azetidine-3,2′-[1,4]dioxino[2,3-f]isoindol]-7′-yl)piperidine-2,6-dione], for which the IC50 (commonly the point on the concentration scale where inhibition reaches its midpoint) lay in the range of 1 to 10 nM.
